Source: patent publication US7119256B2, “Gene encoding acetolactate synthase” (priority 2000, dated 2006)

Tests used:
[1] = tested on: resistant mutant culture cells; test: Growth of bispyribac-sodium resistant rice culture cells (resistant mutant) with herbicide (relative wet weight); type: cell-based, Oryza sativa var. Kinmaze
Protocol: Subsequently, the resulting plurality of cell lines were cultured while elevating the concentration of bispyribac-sodium in an orderly manner. […] The bispyribac-sodium resistant culture cells (hereinafter referred to as resistant mutant) were sub-cultured on MS-2,4-D solid media supplemented with 100 μM bispyribac-sodium. Part of the sub-cultured resistant mutant was sampled, added into MS-2,4-D liquid media not supplemented with bispyribac-sodium, and then subjected to suspended cell culture at a cycle of 8 to 10 days.
Approximately 1.5 g (wet weight) of the resistant mutant was transplanted in 200 ml of a Erlenmeyer flask supplemented with 50 ml of a MS-2,4-D liquid medium and bispyribac-sodium at an appropriate concentration, followed by culturing at approximately 27° C. for an appropriate period. The wet weight of the callus was measured periodically. The relative amount of increase was determined based on the wet weight of the transplanted resistant mutant. In addition, the experiment was performed three times with different bispyribac-sodium concentrations, and the standard error was calculated. […] As a control, a similar experiment was conducted using the wild type (Kinmaze).
The growth rates of the wild type and the resistant mutant were measured as described above except for the use of chlorsulfuron instead of bispyribac-sodium.

mutant ALS protein = mutant ALS protein (Oryza sativa subsp. japonica, UniProt Q6K2E8, S627I/W548L); test: Herbicide sensitivity of ALS partially purified from the resistant mutant (acetoin colorimetric ALS activity); type: biochemical, rice (Kinmaze); set-up: from tissue; host or cells: resistant mutant rice (Kinmaze) cultured cells, liquid culture; ammonium sulfate, Sephadex G-25, HiTrap Q
Chain of mutant ALS protein (Q6K2E8 44-644 W548L/S627I): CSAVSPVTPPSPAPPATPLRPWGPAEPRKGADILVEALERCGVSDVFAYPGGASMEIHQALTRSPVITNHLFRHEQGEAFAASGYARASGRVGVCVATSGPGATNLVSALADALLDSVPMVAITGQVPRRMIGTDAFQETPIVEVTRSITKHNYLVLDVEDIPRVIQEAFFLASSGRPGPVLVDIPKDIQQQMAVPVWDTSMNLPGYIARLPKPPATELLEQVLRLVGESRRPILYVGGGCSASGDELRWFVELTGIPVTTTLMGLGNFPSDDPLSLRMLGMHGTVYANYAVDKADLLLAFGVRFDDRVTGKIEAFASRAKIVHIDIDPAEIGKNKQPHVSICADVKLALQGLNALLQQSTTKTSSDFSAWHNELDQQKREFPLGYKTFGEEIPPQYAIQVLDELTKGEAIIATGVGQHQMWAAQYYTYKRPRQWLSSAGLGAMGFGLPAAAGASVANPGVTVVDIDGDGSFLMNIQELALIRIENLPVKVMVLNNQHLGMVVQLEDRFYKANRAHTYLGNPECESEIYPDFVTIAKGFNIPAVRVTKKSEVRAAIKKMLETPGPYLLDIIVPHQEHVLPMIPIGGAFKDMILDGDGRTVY
Protocol: First, 200 g or more of resistant mutant was prepared by a liquid culture method (no supplementation with bispyribac-sodium), the culture having a composition as shown in Table 1 but without Gelrite. Then, about 150 g of the resistant mutant was homogenized using Hiscotron in a volume of buffer-1 [100 mM potassium phosphate buffer (pH 7.5) containing 20% (v/v) glycerol, 0.5 mM thiamin pyrophosphate (TPP), 10 μM flavin adenine dinucleotide (FAD), 0.5 mM MgCl2, and a volume of polyvinyl polypyrrolidone one-tenth that of tissue volume] 3-fold greater than tissue volume. The homogenate was filtered through nylon gauze, and then centrifuged at 15,000×g for 20 min. Ammonium sulfate was added to the centrifuged supernatant to 50% saturation, and then allowed to stand in ice for approximately 1 hour. The mixture was again centrifuged at 15,000×g for 20 min, and then the precipitated fraction was dissolved in about 30 ml of buffer-2 [10 mM Tris hydrochloric acid buffer (pH 7.5) containing 20% (v/v) glycerol, 0.5 mM TPP and 0.5 mM MgCl2]. […]
Next, the protein concentration of the crude enzyme solution was measured by the Bradford method according to the manual of Bio-Rad Protein Assay. […]
ALS activity resulting from the mutant ALS protein contained in the eluted fractions apportioned into each test tube for apportion was measured as follows. A reaction solution to be used in a measurement reaction was prepared by mixing an eluted fraction to be measured with a solution comprising 20 mM sodium pyruvate, 0.5 mM TPP, 0.5 mM MgCl2, 10 μM FAD and 20 mM potassium phosphate buffer (pH 7.5). […] After the eluted fraction to be measured was added, the measurement reaction was performed at 30° C. for 40 to 60 min. […]
Then, to quantify acetoin contained in the reaction solution, 1 ml of 0.5% (w/v) creatine and 1 ml of 5% (w/v) α-naphthol dissolved in 2.5 N sodium hydroxide was added to the reaction solution, followed by incubation at 37° C. for 10 min. Acetoin was then quantified by color comparison of the absorbance (at 525 nm) of the reaction solution, thereby evaluating ALS activity. […]

Compound	growth of the resistant mutant (relative weight on day 8) ([1]; 10 μM bispyribac-sodium)	proliferation of resistant cell lines in the presence of herbicide ([1]; 100 μM bispyribac-sodium)	IC50 (mutant ALS protein) [nM]	growth of the resistant mutant (relative weight on day 9) ([1]; 1 μM chlorsulfuron)
COc1cc(OC)nc(Oc2cccc(Oc3nc(OC)cc(OC)n3)c2C(=O)[O-])n1.[Na+] [Bispyribac-sodium, bispyribac-sodium]	almost none of the growth of the resistant mutant was affected	can proliferate	421	
COc1nc(C)nc(NC(=O)NS(=O)(=O)c2ccccc2Cl)n1 [Chlorsulfuron, chlorsulfuron]			92.8	strongly inhibited
